Test results: ChEMBL document CHEMBL4507285, “Data for DCP probe MRL-SYKi” (2021)

What was measured:
[1] = target: Serine/threonine-protein kinase MAK (Homo sapiens) (UniProt P20794); details: Compound concentration 100.0 nM
[2] = target: Myosin light chain kinase, smooth muscle (Homo sapiens) (UniProt Q15746); details: Compound concentration 100.0 nM
[3] = target: Ephrin type-B receptor 6 (Homo sapiens) (UniProt O15197); details: Compound concentration 100.0 nM
[4] = system: Receptor-type tyrosine-protein kinase FLT3 (Homo sapiens), P36888 [N841I]; details: Compound concentration 100.0 nM
[5] = target: 5-hydroxytryptamine receptor 2A (Homo sapiens) (UniProt P28223); details: Compound concentration 10.0 uM
[6] = system: Serine/threonine-protein kinase B-raf (Homo sapiens), P15056 [V600E]; details: Compound concentration 100.0 nM
Serine/threonine-protein kinase B-raf (Homo sapiens), P15056 [V600E], sequence (P15056 whole entry V600E): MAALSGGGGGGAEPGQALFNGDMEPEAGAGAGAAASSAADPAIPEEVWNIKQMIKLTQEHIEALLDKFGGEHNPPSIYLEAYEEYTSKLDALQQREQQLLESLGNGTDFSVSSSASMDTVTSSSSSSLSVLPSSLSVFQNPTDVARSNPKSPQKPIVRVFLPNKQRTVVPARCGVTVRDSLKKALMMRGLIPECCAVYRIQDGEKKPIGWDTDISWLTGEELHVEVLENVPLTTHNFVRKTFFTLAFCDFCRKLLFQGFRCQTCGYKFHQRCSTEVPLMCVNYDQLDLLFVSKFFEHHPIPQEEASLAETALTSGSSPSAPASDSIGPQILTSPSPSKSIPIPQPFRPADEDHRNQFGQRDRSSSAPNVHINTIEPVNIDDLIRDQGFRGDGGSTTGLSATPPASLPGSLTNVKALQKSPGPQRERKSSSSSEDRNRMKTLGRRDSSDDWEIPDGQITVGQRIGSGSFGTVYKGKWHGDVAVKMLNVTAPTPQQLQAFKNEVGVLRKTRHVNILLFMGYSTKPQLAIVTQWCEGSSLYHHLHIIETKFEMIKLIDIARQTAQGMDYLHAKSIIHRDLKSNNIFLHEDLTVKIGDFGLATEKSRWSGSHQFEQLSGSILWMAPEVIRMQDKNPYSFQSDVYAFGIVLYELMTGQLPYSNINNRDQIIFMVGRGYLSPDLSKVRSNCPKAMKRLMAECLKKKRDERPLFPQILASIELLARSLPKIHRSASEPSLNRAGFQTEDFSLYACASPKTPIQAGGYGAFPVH

[7] = target: Leucine-rich repeat serine/threonine-protein kinase 2 (Homo sapiens) (UniProt Q5S007); details: Compound concentration 100.0 nM
[8] = target: D(2) dopamine receptor (Homo sapiens) (UniProt P14416); details: Compound concentration 10.0 uM
[9] = target: D(1A) dopamine receptor (Homo sapiens) (UniProt P21728); details: Compound concentration 10.0 uM
D(1A) dopamine receptor (Homo sapiens), sequence (P21728 whole entry): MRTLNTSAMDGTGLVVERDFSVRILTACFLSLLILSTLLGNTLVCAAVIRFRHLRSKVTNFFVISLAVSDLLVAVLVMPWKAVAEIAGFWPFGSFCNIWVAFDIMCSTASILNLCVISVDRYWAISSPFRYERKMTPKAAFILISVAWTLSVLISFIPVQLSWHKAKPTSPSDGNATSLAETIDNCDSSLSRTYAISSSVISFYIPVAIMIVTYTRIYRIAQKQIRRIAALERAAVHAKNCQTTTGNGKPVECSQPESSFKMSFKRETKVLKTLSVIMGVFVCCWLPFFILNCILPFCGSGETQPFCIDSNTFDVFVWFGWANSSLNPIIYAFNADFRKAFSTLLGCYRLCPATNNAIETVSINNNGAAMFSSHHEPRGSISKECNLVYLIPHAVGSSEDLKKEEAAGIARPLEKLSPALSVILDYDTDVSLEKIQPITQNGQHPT

[10] = target: Tyrosine-protein kinase Fyn (Homo sapiens, UniProt P06241); details: Compound concentration 100.0 nM
[11] = target: Serine/threonine-protein kinase LATS1 (Homo sapiens) (UniProt O95835); details: Compound concentration 100.0 nM
[12] = target: Mitogen-activated protein kinase kinase kinase kinase 1 (Homo sapiens) (UniProt Q92918); details: Compound concentration 100.0 nM
[13] = target: SNF-related serine/threonine-protein kinase (Homo sapiens) (UniProt Q9NRH2); details: Compound concentration 100.0 nM
[14] = target: Serine/threonine-protein kinase 32A (Homo sapiens) (UniProt Q8WU08); details: Compound concentration 100.0 nM
[15] = target: Ribosomal protein S6 kinase alpha-2 (Homo sapiens) (UniProt Q15349); details: Compound concentration 100.0 nM
Ribosomal protein S6 kinase alpha-2 (Homo sapiens), sequence (Q15349 whole entry): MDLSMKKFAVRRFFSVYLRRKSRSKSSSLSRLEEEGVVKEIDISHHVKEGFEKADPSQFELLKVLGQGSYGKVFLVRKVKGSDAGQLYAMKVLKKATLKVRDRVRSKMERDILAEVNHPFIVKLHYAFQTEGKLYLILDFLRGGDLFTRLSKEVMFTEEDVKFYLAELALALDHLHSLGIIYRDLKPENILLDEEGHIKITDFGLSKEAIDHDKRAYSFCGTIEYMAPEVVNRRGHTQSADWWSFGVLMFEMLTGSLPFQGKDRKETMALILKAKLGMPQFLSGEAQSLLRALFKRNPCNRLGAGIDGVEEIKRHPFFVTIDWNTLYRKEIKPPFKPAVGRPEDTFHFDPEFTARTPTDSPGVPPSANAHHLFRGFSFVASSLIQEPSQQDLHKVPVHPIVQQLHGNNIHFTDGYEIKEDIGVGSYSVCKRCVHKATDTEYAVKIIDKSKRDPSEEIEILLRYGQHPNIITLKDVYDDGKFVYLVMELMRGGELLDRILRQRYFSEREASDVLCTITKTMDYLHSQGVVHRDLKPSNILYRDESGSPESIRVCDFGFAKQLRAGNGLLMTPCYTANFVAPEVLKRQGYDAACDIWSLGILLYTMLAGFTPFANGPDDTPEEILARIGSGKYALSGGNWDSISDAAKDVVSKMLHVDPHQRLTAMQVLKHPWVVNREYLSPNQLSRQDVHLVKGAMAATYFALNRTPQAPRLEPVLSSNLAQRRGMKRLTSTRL

[16] = system: Epidermal growth factor receptor (Homo sapiens), P00533 [G719C]; details: Compound concentration 100.0 nM
[17] = target: Phosphatidylinositol 3-kinase catalytic subunit type 3 (Homo sapiens) (UniProt Q8NEB9); details: Compound concentration 100.0 nM
[18] = system: Tyrosine-protein kinase ABL1 (Homo sapiens), P00519 [Q252H]; details: Compound concentration 100.0 nM
[19] = target: Serine/threonine-protein kinase OSR1 (Homo sapiens) (UniProt O95747); details: Compound concentration 100.0 nM
[20] = target: 5'-AMP-activated protein kinase catalytic subunit alpha-1 (Homo sapiens) (UniProt Q13131); details: Compound concentration 100.0 nM
[21] = system: Epidermal growth factor receptor (Homo sapiens), P00533 [T790M]; details: Compound concentration 100.0 nM
[22] = target: Cyclin-dependent kinase 9 (Homo sapiens) (UniProt P50750); details: Compound concentration 100.0 nM
[23] = target: Ribosomal protein S6 kinase alpha-2 (Homo sapiens) (UniProt Q15349); details: Compound concentration 100.0 nM; remark: listed apart in the source
[24] = target: Activin receptor type-2B (Homo sapiens) (UniProt Q13705); details: Compound concentration 100.0 nM
[25] = target: 5-hydroxytryptamine receptor 2C (Homo sapiens) (UniProt P28335); details: Compound concentration 10.0 uM
[26] = target: Protein kinase C iota type (Homo sapiens) (UniProt P41743); details: Compound concentration 100.0 nM
[27] = target: Serine/threonine-protein kinase Nek9 (Homo sapiens) (UniProt Q8TD19); details: Compound concentration 100.0 nM
Serine/threonine-protein kinase Nek9 (Homo sapiens), sequence (Q8TD19 whole entry): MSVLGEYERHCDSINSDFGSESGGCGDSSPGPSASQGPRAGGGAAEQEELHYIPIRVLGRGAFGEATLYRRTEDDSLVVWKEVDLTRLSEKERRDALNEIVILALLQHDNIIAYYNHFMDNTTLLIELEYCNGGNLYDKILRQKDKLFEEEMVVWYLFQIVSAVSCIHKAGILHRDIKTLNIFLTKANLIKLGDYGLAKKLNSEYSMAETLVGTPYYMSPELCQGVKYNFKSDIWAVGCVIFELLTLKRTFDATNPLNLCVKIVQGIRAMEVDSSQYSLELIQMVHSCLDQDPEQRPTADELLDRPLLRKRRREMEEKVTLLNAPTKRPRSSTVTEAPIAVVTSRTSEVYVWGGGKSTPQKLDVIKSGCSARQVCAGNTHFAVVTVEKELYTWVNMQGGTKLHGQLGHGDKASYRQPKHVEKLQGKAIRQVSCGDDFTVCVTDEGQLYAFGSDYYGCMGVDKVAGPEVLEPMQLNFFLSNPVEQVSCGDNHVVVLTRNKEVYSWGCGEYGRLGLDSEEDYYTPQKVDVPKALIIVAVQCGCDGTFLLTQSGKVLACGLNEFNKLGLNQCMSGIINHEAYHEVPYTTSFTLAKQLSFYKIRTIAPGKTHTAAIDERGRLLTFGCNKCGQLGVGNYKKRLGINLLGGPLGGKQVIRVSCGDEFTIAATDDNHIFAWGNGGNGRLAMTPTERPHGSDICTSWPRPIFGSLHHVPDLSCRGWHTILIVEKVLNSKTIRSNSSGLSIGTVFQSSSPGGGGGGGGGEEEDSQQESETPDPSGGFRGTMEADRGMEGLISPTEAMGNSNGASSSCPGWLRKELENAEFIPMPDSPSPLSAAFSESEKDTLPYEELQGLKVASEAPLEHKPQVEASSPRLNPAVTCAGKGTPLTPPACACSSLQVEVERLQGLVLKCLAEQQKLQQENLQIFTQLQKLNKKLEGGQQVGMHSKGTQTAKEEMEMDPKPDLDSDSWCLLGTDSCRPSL

[28] = target: Serine/threonine-protein kinase MRCK alpha (Homo sapiens) (UniProt Q5VT25); details: Compound concentration 100.0 nM
[29] = target: NUAK family SNF1-like kinase 1 (Homo sapiens) (UniProt O60285); details: Compound concentration 100.0 nM
[30] = target: Mitogen-activated protein kinase kinase kinase 11 (Homo sapiens) (UniProt Q16584); details: Compound concentration 100.0 nM
Mitogen-activated protein kinase kinase kinase 11 (Homo sapiens), sequence (Q16584 whole entry, looked up): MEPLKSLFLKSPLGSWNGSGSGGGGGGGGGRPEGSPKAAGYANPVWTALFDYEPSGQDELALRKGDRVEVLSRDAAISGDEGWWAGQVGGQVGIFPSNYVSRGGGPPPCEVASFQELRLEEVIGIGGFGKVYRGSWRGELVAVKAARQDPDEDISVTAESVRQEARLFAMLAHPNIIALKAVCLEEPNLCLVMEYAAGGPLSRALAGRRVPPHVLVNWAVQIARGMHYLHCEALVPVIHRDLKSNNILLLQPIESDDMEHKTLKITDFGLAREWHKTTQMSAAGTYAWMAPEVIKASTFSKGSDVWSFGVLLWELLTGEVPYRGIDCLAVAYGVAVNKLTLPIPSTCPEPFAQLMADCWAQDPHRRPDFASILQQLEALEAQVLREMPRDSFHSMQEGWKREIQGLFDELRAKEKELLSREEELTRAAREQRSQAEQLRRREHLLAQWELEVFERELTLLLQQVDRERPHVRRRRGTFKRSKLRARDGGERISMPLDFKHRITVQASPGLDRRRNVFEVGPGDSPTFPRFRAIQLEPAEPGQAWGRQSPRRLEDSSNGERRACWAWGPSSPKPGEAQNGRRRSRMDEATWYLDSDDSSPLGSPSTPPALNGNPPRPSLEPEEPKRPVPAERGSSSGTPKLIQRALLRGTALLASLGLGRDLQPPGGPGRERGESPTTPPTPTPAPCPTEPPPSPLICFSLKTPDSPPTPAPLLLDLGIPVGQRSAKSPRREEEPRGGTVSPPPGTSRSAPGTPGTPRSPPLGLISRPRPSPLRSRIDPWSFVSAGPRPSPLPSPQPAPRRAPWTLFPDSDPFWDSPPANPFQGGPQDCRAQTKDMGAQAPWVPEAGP

[31] = target: Receptor tyrosine-protein kinase erbB-2 (Homo sapiens) (UniProt P04626); details: Compound concentration 100.0 nM
[32] = target: Protein kinase C theta type (Homo sapiens) (UniProt Q04759); details: Compound concentration 100.0 nM
[33] = target: Mitogen-activated protein kinase kinase kinase 19 (Homo sapiens) (UniProt Q56UN5); details: Compound concentration 100.0 nM
[34] = system: Proto-oncogene tyrosine-protein kinase receptor Ret (Homo sapiens), P07949 [V804L]; details: Compound concentration 100.0 nM
[35] = target: Fibroblast growth factor receptor 3 (Homo sapiens) (UniProt P22607); details: Compound concentration 100.0 nM
[36] = target: Calcium/calmodulin-dependent protein kinase kinase 2 (Homo sapiens) (UniProt Q96RR4); details: Compound concentration 100.0 nM
[37] = target: Calcium-dependent protein kinase 1 (Plasmodium falciparum) (UniProt P62344); details: Compound concentration 100.0 nM
[38] = target: Dual specificity mitogen-activated protein kinase kinase 2 (Homo sapiens) (UniProt P36507); details: Compound concentration 100.0 nM
[39] = target: Serine/threonine-protein kinase ULK2 (Homo sapiens) (UniProt Q8IYT8); details: Compound concentration 100.0 nM
[40] = target: Mitogen-activated protein kinase kinase kinase 4 (Homo sapiens) (UniProt Q9Y6R4); details: Compound concentration 100.0 nM
[41] = target: Glycogen synthase kinase-3 beta (Homo sapiens) (UniProt P49841); details: Compound concentration 100.0 nM
[42] = target: Megakaryocyte-associated tyrosine-protein kinase (Homo sapiens) (UniProt P42679); details: Compound concentration 100.0 nM
Megakaryocyte-associated tyrosine-protein kinase (Homo sapiens), sequence (P42679 whole entry): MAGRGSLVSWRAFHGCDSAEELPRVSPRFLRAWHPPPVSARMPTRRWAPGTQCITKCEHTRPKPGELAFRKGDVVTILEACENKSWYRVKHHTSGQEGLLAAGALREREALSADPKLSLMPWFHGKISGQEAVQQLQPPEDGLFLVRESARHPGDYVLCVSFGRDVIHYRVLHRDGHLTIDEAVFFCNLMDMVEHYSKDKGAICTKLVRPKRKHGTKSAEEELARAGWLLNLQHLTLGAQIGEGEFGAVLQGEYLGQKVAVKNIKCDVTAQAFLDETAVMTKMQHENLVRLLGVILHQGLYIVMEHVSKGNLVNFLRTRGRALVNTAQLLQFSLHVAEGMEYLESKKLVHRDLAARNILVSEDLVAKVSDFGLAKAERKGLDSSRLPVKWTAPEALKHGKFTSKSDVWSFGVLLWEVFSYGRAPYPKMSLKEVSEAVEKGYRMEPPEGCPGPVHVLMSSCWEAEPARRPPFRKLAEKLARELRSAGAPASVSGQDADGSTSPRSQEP

[43] = target: Ephrin type-B receptor 3 (Homo sapiens) (UniProt P54753); details: Compound concentration 100.0 nM
[44] = target: Serine/threonine-protein kinase PLK4 (Homo sapiens) (UniProt O00444); details: Compound concentration 100.0 nM
[45] = target: Muscarinic acetylcholine receptor M4 (Homo sapiens) (UniProt P08173); details: Compound concentration 10.0 uM

Serine/threonine-protein kinase MAK (Homo sapiens), sequence (P20794 whole entry): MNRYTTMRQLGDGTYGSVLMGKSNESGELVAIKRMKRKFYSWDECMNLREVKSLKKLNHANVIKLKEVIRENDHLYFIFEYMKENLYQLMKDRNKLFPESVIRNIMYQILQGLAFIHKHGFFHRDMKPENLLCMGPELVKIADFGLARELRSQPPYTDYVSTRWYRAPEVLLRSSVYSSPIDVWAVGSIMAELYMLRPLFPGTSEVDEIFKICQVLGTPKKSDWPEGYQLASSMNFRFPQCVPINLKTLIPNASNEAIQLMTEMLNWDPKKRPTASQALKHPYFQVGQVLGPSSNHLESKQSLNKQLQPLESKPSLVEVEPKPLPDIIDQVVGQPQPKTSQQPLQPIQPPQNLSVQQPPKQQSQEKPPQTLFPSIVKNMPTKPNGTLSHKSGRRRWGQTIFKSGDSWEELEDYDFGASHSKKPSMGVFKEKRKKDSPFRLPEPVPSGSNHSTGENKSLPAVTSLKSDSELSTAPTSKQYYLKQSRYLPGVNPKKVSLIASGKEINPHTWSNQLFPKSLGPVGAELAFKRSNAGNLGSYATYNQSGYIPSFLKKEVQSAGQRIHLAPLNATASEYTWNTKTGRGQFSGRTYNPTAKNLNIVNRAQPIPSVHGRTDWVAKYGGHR

`Cc1ccc(-c2cnc([C@@]3(O)CC[C@H](C(=O)O)C(C)(C)C3)s2)cc1Nc1cccc(C(F)(F)F)n1` [MRL-SYKi-NC] was tested, and the residual activity [1] was 93.9%, the residual activity [2] was 86.6% and the residual activity [3] was 78.6%. The residual activity [4] was 89.3%, the inhibition [5] was 11.2% and the residual activity [6] was 100%. It also gave a residual activity [7] of 87.4%, an inhibition [8] of -5.34% and an inhibition [9] of 6.26%. For the same compound, the residual activity [10] was 100%, the residual activity [11] was 100% and the residual activity [12] was 100%. For the same compound, the residual activity [13] was 90.1%, the residual activity [14] was 89.7% and the residual activity [15] was 100%. For the same compound, the residual activity [16] was 100%, the residual activity [17] was 67.2% and the residual activity [18] was 82.2%. For the same compound, the residual activity [19] was 69.9%, the residual activity [20] was 77.6% and the residual activity [21] was 77.8%. The residual activity [22] was 100%, the residual activity [23] was 100% and the residual activity [24] was 100%. It also gave an inhibition [25] of 4.21%, a residual activity [26] of 96.2% and a residual activity [27] of 80.3%. It also gave a residual activity [28] of 100%, a residual activity [29] of 100% and a residual activity [30] of 100%. The residual activity [31] was 100%, the residual activity [32] was 100% and the residual activity [33] was 100%. It also gave a residual activity [34] of 100%, a residual activity [35] of 100% and a residual activity [36] of 91.5%. The residual activity [37] was 90.1%, the residual activity [38] was 87% and the residual activity [39] was 76%. It also gave a residual activity [40] of 100%, a residual activity [41] of 95.6% and a residual activity [42] of 74.6%. It also gave a residual activity [43] of 100%, a residual activity [44] of 56.5% and an inhibition [45] of 20%.

`Cc1cc(Nc2nccc(C)n2)cc(-c2cnc([C@@]3(O)CC[C@H](C(=O)O)C(C)(C)C3)s2)c1` [MRL-SYKi] was tested, and the residual activity [1] was 73.8%, the residual activity [2] was 92.9% and the residual activity [3] was 34.7%. For the same compound, the residual activity [4] was 100%, the inhibition [5] was -4.23% and the residual activity [6] was 100%. For the same compound, the residual activity [7] was 87.1%, the inhibition [8] was -3.52% and the inhibition [9] was -7.4%. It also gave a residual activity [10] of 36.1%, a residual activity [11] of 100% and a residual activity [12] of 100%. It also gave a residual activity [13] of 100%, a residual activity [14] of 100% and a residual activity [15] of 86%. For the same compound, the residual activity [16] was 100%, the residual activity [17] was 99.6% and the residual activity [18] was 32.4%. For the same compound, the residual activity [19] was 79.9%, the residual activity [20] was 100% and the residual activity [21] was 91.6%. The residual activity [22] was 100%, the residual activity [23] was 100% and the residual activity [24] was 82.8%. For the same compound, the inhibition [25] was 3.02%, the residual activity [26] was 77.3% and the residual activity [27] was 92.8%. The residual activity [28] was 86.2%, the residual activity [29] was 100% and the residual activity [30] was 92.6%. For the same compound, the residual activity [31] was 89.6%, the residual activity [32] was 39.9% and the residual activity [33] was 100%. The residual activity [34] was 87%, the residual activity [35] was 88.2% and the residual activity [36] was 69.7%. It also gave a residual activity [37] of 100%, a residual activity [38] of 89.4% and a residual activity [39] of 100%. It also gave a residual activity [40] of 67.4%, a residual activity [41] of 100% and a residual activity [42] of 100%. It also gave a residual activity [43] of 100%, a residual activity [44] of 100% and an inhibition [45] of 16.7%.
